Results on 1 molecule are retold here after US9986723B2, “Screen and use of therapeutics for pancreatic ductal adenocarcinoma” (The Board of Regents of the University of Texas System, priority 2014, dated 2018).

For experiment [1], the system named is AsPC-1, Mia PaCa-2, and Capan-1 cells. The experiment is described as follows: Soft agar anchorage-independent growth assay. It counts as cell-based, human. Conditions: warfarin 2 μM, 14 days; Axl-expressing cells. As to the method:
FIGS. 25A-I. Axl inhibition reduces colony formation and enhances chemotherapy. (FIGS. 25A-C) parental Mia PaCa-2 cells or Mia PaCa-2 cells stably transfected with shRNA targeting Axl (Mia shAxl) were grown as spheroids in matrigel for 7 days in the presence or absence of warfarin (200 ng/ml), n=4/condition. Mia PaCa-2 cell colonies form large stellate colonies characteristic of invasive tumor growth. Colonies and cognate cell projections were imaged (FIG. 25A) with a Nikon Phase contrast microscope using 40× and 200× magnification. Mean total colony number (FIG. 25B) and total colony area+/−s.d. (FIG. 25C) reflective of invasive growth were calculated using Image J image analysis. Scale bar, 100 μm. ****, p<0.001 vs Mia PaCa-2 NT; ##, p<0.01; ###, p<0.005. by ANOVA with Tukey's MCT. […] (FIG. 25E) liver metastases were quantified after intrasplenic injection of C5LM2 cells. […] Mice were sacrificed when control treated animals were moribund and primary and metastatic burden was determined. […]
Anchorage-independent growth assays were performed by coating 12 well plates with 0.5-0.75% agar. […] Fresh media and drug were added twice weekly and colonies were measured by light microscopy at 2 weeks; assays were performed in quadruplicate.

The next experiment relates to Gas6. Description: Gas6 γ-carboxylation in conditioned media of HEK293 cells expressing recombinant Gas6 (immunoblot). It counts as cell-based. Conditions: Vitamin K + warfarin, in vitro. Here is the method:
(§1) (FIG. 24A) HEK293 cells engineered to stably express recombinant Gas6 were grown in the presence of Vitamin K or Vitamin K+warfarin. Gas6 levels and γ-carboxylation were assayed by immunoblotting conditioned media. Conditioned media from untransfected HEK293 cells was used as a negative control. (FIG. 24B) Panc1 cells were grown overnight in media with 1% serum with no additions (NT), warfarin (2 μM) or BGB324 (2 μM). Lysates were probed for total Axl (tAxl) and phosphorylated Axl (pAxl). (FIG. 24C) Panc1 cells were grown in the presence of control media, Vitamin K, warfarin or warfarin+Vitamin K. The level of phosphorylated Axl (pAXL, red) was determined by immunofluorescence. (FIG. 24D) Panc1 cells were grown overnight in media with 1% serum with no additions (control), warfarin (1 μM), Gas6 (1.3 nM) or Gas6+warfarin. Lysates were probed for phosphorylated Akt (pAkt) and actin. (FIG. 24E) Lysates from Panc1 tumors harvested from mice treated with control or warfarin were probed for expression of tAxl, pAxl, actin, pAKT, tAKT, and cleaved Parp. (FIG. 24F) The effect of warfarin on cell migration was assessed by a ‘scratch’ assay. Monolayers of the indicted cells were wounded with a pipet tip. The cells were incubated in media containing 2% serum+/−warfarin (2 μM) or media containing 2% serum+Gas6 (1.3 nM)+/−warfarin.
(In general: A western blot detects proteins with antibodies after separation by electrophoresis.)

The target of experiment [2] is vitamin K epoxide reductase (Homo sapiens, UniProt Q9BQB6). The following applies: cited from earlier work.
Another experiment has as its system AKT. Description: Gas6-induced phosphorylated Akt in Panc1 cells. It counts as cell-based, human. Conditions: warfarin 1 μM, Gas6 1.3 nM. As to the method:
as §1

For a further experiment, the system named is KIC tumors. The experiment is described as follows: Low dose warfarin in drinking water, spontaneous genetic PDA model. It counts as in vivo, mouse. Conditions: warfarin 0.5 mg/L drinking water, 4 weeks from 3 weeks of age. Here is the method:
(FIG. 23A) Primary tumor burden after therapy with warfarin. Therapy was initiated when implanted tumors were visible by ultrasound (˜10 mm^3) and consisted of control (normal drinking water) or warfarin, administered in the drinking water at 0.5 mg/L (immunocompetent mice: Pan02 (n=4, control; 3, warfarin), KIC (n=10, control; 8, warfarin)) or 1 mg/L (Panc-1 (n=10, control; 8, warfarin), AsPC-1 (n=8, control; 6, warfarin), Capan-1 (n=10, control; 7, warfarin)) and continued for 2-4 weeks until control mice were moribund. Therapy in KIC mice was initiated at 3 weeks of age and continued for 4 weeks. (FIG. 23B) Metastases were determined grossly upon sacrifice and confirmed by histological evaluation of the liver. […] Incidence of metastasis is also indicated. […] Tumor volume determined by serial ultrasound. […] Therapy with mAb 10C9 (250 μg 2×/week) was initiated when tumors were established as above and persisted for 4 weeks. […] Error bars indicate s.e.m.
Animal studies. […] Mice with established tumors, as determined by sonography were randomized to receive normal drinking water or water containing 1 mg/L (˜3.0 μM) warfarin for experiments in immunocompromised mice and 0.5 mg/L (˜1.5 μM) in experiments in immunocompetent animals with or without gemcitabine 25 mg/kg twice weekly depending on experimental design.

vitamin K epoxide reductase, sequence (Q9BQB6 whole entry): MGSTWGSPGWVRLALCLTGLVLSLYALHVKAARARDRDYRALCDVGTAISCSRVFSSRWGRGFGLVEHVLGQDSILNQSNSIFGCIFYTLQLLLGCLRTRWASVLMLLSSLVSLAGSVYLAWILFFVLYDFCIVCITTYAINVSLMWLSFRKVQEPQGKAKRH

As for `CC(=O)CC(c1ccccc1)c1c(O)c2ccccc2oc1=O` (racemic) [Warfarin], in experiment [1], the anchorage independent growth entry was “inhibited”. Further, the “γ-carboxylation of Gas6” value in the experiment with Gas6 is “prevented”. The “duration of action of a single dose” value in experiment [2] is recorded as 2 to 5 days. Moreover, in the experiment with AKT, the “Gas6-induced activation of AKT” value was “inhibited”. Besides, in the experiment with KIC tumors, the primary tumor growth result is on record as “reduced primary tumor growth”.
